Measurements from patent US8017828B2, “Utilization of rare sugars in plant or microorganism” (Shikoku Research Institute Incorporated, priority 2004, dated 2011).

Legend:
[1] = test system: rice plant (variety: “Hinohikari”); assay: Foliar spraying of sugar on pot-grown rice; format: in vivo
Experimental: After seeds of a rice plant (variety: “Hinohikari”) were put in a nylon net and subjected to sterilization and a germination induction treatment in a growth chamber at 30° C. for 2 days while they were soaked in 0.1% (w/v) Benlate (Hokko Chemical Industry Co., Ltd.) in accordance with a common method, they were sown in a nursery tray filled with “Kumiai Ryujou Baido SD” (Kureha Chemical Industry Co., Ltd.) and raised in a phytotron (day temperature: 25° C. and night temperature: 18° C.) for about 2 weeks. Then, Wagner pots with a size of 1/5,000a were filled with “Kumiai Ryujou Baido SD” (Kureha Chemical Industry Co., Ltd.) and the raised rice seedlings were transplanted for permanent planting to the pots and the cultivation was started on Jul. 2, 2003 in the open air under the condition that the soil was covered with water in the pots. From Jul. 16, 2003, when the seedlings were confirmed to take root, water, a 0.02% (w/v) sugar solution, a 0.1% (w/v) sugar solution or a 0.5% (w/v) sugar solution was sprayed onto the whole plant on a three times weekly basis. As for the types of sugars, D-glucose, D-fructose and D-psicose were used and three pots were cultivated for each test plot. The cultivation was continued in such a manner that the water in pots was not dried up and after 5 g of Magamp K medium (HYPONeX JAPAN CORP., Ltd.) per pot was added as additional fertilization on Aug. 29, 2003, and the harvest and survey were carried out on Sep. 22, 2003. The survey items were plant length, number of tillers, leaf weight, husk weight, underground part weight and the like.

[2] = test system: Bletilla striata; assay: Growth and bulb formation of Bletilla striata seedlings in tissue culture; format: in vivo
Experimental: Seedling plants of Bletilla striata obtained by sterile sowing were used in an experiment.
As for the Bletilla striata, by using ½ strength MS medium supplemented with D-psicose, D-allose, D-glucose or D-frucose at a concentration of from 0.005% to 0.05% (w/v), the seedling plants were aseptically transplanted on Feb. 27, 2003, and then, cultivation was carried out under the same conditions as those of the strawberry in Example 3. Then, on Jun. 30, 2003, a survey was carried out with regard to the growth conditions of aerial part and underground part, the number of buds, the ratio of bulb formation, the bulb size and the like.

[3] = test system: Cymbidium; assay: Growth of Cymbidium flask seedlings in tissue culture; format: in vivo; details: 0.005% in MS medium; for Number of lateral buds: non 0; for Aerial part weight: non 2.1; for Underground part weight: non 3.8; for Number of roots: non 10.8
Text: (§1) Flask seedlings of Phalaenopsis orchid and Cymbidium obtained by tissue culture were used in an experiment.
As for Cymbidium, in the same manner as the above Phalaenopsis orchid, MS medium supplemented with D-psicose, D-glucose, D-fructose or D-allose was used, and the flask seedlings were aseptically transplanted on Oct. 4, 2004. At this time, 4 or 5 leaves and 2 roots were left and the rest of them were cut off using a knife. As for the number of seedlings, 4 seedlings were used for 1 test plot, and glass bottles with a capacity of 900 ml and having a hole with a diameter of about 1 cm for preventing dew condensation made in the upper region was used as culture containers. The cultivation was carried out in a culture chamber at 25° C. and 5,000 Lux (12-hour day length) Then, on Feb. 1, 2005, a survey was carried out with regard to the growth conditions of aerial part and underground part, the number of roots and the number of lateral buds. The results are shown in Table 9 (effect of addition of rare sugar on the growth of seedlings of Cymbidium).

[4] = test system: Pythium ultimum IFO 32426 strain; assay: Oospore formation of Pythium ultimum in sugar solution; format: cell-based; details: 0.05% (w/v) sugar solution, 23° C., 4 days
Experimental: With regard to Pythium ultimum that causes damping-off of spinach and the like, an effect of a rare sugar on oospore formation was examined.
First, as the Pythium ultimum, IFO 32426 strain was used, and static culture thereof was carried out with 200 ml of V8 medium at 23° C. for 1 week. The resulting mycelial mat was well washed with sterile water and divided into 16 equal parts with forceps. This mycerial body was disentangled uniformly to form a small piece and immersed in 20 ml of a sugar solution at a concentration of 0.05% (w/v) and let stand at 23° C. for 4 days. […] Further, the same experiment was carried out using Pythium zingiberum IFO 30817 strain.

[5] = test system: Phalaenopsis orchid; assay: Growth of Phalaenopsis orchid flask seedlings in tissue culture; format: in vivo; details: 0.005% in MS medium; for Underground part weight: non 2.9; for Aerial part weight: non 4.7; for Number of roots: non 12.5
Experimental: as §1
As for Phalaenopsis orchid, MS medium supplemented with D-psicose, D-glucose or D-fructose at a concentration of 0.005% (w/v) was used, and the flask seedlings were aseptically transplanted on Sep. 6, 2004. As for the number of seedlings, 4 seedlings were used for 1 test plot, and glass bottles with a capacity of 500 ml and having a hole with a diameter of about 1 cm for preventing dew condensation made in the upper region was used as culture containers. The cultivation was carried out in a culture chamber at 25° C. and 5,000 Lux (12-hour day length) Then, on Jan. 24, 2005, a survey was carried out with regard to the growth conditions of aerial part and underground part and the number of roots. The results are shown in Table 8 (effect of addition of D-psicose on the growth of seedlings of Phalaenopsis orchid).

In the case of O=C(CO)[C@@H](O)[C@H](O)[C@H](O)CO [D-fructose, reference compound], the Dry husk weight ([1]; 0.02% sugar solution sprayed) is reported as 16.8 g, the Dry leaf weight ([1]; 0.02% sugar solution sprayed) is reported as 43.3 g and the Number of tillers ([1]; 0.02% sugar solution sprayed) is reported as 29.3. For the same compound, the Plant length ([1]; 0.02% sugar solution sprayed) was 85.7 cm, the Dry husk weight ([1]; 0.10% sugar solution sprayed) was 16.1 g and the Dry leaf weight ([1]; 0.10% sugar solution sprayed) was 41.0 g. For the same compound, the Number of tillers ([1]; 0.10% sugar solution sprayed) was 29.3, the Plant length ([1]; 0.10% sugar solution sprayed) was 84.3 cm and the Dry husk weight ([1]; 0.50% sugar solution sprayed) was 17.2 g. For the same compound, the Dry leaf weight ([1]; 0.50% sugar solution sprayed) was 36.4 g, the Number of tillers ([1]; 0.50% sugar solution sprayed) was 27.0 and the Plant length ([1]; 0.50% sugar solution sprayed) was 85.7 cm. It also gave an Aerial part weight ([2]; sugar 0.005% in medium) of 0.16 g, a Bulb size ([2]; sugar 0.005% in medium) of 5.2 mm and a Maximum plant length ([2]; sugar 0.005% in medium) of 6.5 cm. For the same compound, the Maximum root length ([2]; sugar 0.005% in medium) was 4.6 cm, the Number of buds ([2]; sugar 0.005% in medium) was 3.7 and the Number of leaves ([2]; sugar 0.005% in medium) was 3.5. For the same compound, the “Ratio of bulb formation” value ([2]; sugar 0.005% in medium) was 44%, the Underground part weight ([2]; sugar 0.005% in medium) was 0.15 g and the Aerial part weight ([2]; sugar 0.02% in medium) was 0.19 g. It also gave a Bulb size ([2]; sugar 0.02% in medium) of 4.5 mm, a Maximum plant length ([2]; sugar 0.02% in medium) of 6.6 cm and a Maximum root length ([2]; sugar 0.02% in medium) of 5.1 cm. For the same compound, the Number of buds ([2]; sugar 0.02% in medium) was 3.3, the Number of leaves ([2]; sugar 0.02% in medium) was 4.6 and the “Ratio of bulb formation” value ([2]; sugar 0.02% in medium) was 67%. The Underground part weight ([2]; sugar 0.02% in medium) was 0.14 g, the Aerial part weight ([2]; sugar 0.05% in medium) was 0.19 g and the Bulb size ([2]; sugar 0.05% in medium) was 4.7 mm. The Maximum plant length ([2]; sugar 0.05% in medium) was 7.3 cm, the Maximum root length ([2]; sugar 0.05% in medium) was 4.1 cm and the Number of buds ([2]; sugar 0.05% in medium) was 3.3. For the same compound, the Number of leaves ([2]; sugar 0.05% in medium) was 4.0, the “Ratio of bulb formation” value ([2]; sugar 0.05% in medium) was 69% and the Underground part weight ([2]; sugar 0.05% in medium) was 0.10 g. The “Number of lateral buds” value [3] was 0 buds, the Aerial part weight [3] was 2.0 g and the Underground part weight [3] was 3.8 g. For the same compound, the Number of roots [3] was 10.0 roots, the oospore formation [4] was “no effect” and the Underground part weight [5] was 4.0 g. The Aerial part weight [5] was 5.7 g and the Number of roots [5] was 14.8 roots.
For O=C[C@H](O)[C@@H](O)[C@H](O)[C@H](O)CO [D-glucose, reference compound], the Dry husk weight ([1]; 0.02% sugar solution sprayed) was 17.2 g, the Dry leaf weight ([1]; 0.02% sugar solution sprayed) was 34.0 g and the Number of tillers ([1]; 0.02% sugar solution sprayed) was 29.3. It also gave a Plant length ([1]; 0.02% sugar solution sprayed) of 74.0 cm, a Dry husk weight ([1]; 0.10% sugar solution sprayed) of 17.6 g and a Dry leaf weight ([1]; 0.10% sugar solution sprayed) of 35.5 g. For the same compound, the Number of tillers ([1]; 0.10% sugar solution sprayed) was 30.0, the Plant length ([1]; 0.10% sugar solution sprayed) was 75.5 cm and the Dry husk weight ([1]; 0.50% sugar solution sprayed) was 17.9 g. The Dry leaf weight ([1]; 0.50% sugar solution sprayed) was 37.3 g, the Number of tillers ([1]; 0.50% sugar solution sprayed) was 31.3 and the Plant length ([1]; 0.50% sugar solution sprayed) was 74.8 cm. For the same compound, the Aerial part weight ([2]; sugar 0.005% in medium) was 0.15 g, the Bulb size ([2]; sugar 0.005% in medium) was 5.1 mm and the Maximum plant length ([2]; sugar 0.005% in medium) was 7.3 cm. It also gave a Maximum root length ([2]; sugar 0.005% in medium) of 4.9 cm, a Number of buds ([2]; sugar 0.005% in medium) of 3.7 and a Number of leaves ([2]; sugar 0.005% in medium) of 4.1. For the same compound, the “Ratio of bulb formation” value ([2]; sugar 0.005% in medium) was 37%, the Underground part weight ([2]; sugar 0.005% in medium) was 0.13 g and the Aerial part weight ([2]; sugar 0.02% in medium) was 0.20 g. It also gave a Bulb size ([2]; sugar 0.02% in medium) of 5.7 mm, a Maximum plant length ([2]; sugar 0.02% in medium) of 7.2 cm and a Maximum root length ([2]; sugar 0.02% in medium) of 5.1 cm. For the same compound, the Number of buds ([2]; sugar 0.02% in medium) was 3.4, the Number of leaves ([2]; sugar 0.02% in medium) was 3.9 and the “Ratio of bulb formation” value ([2]; sugar 0.02% in medium) was 59%. The Underground part weight ([2]; sugar 0.02% in medium) was 0.18 g, the Aerial part weight ([2]; sugar 0.05% in medium) was 0.18 g and the Bulb size ([2]; sugar 0.05% in medium) was 5.2 mm. The Maximum plant length ([2]; sugar 0.05% in medium) was 6.5 cm, the Maximum root length ([2]; sugar 0.05% in medium) was 6.1 cm and the Number of buds ([2]; sugar 0.05% in medium) was 3.4. The Number of leaves ([2]; sugar 0.05% in medium) was 4.0, the “Ratio of bulb formation” value ([2]; sugar 0.05% in medium) was 45% and the Underground part weight ([2]; sugar 0.05% in medium) was 0.14 g. For the same compound, the “Number of lateral buds” value [3] was 0 buds, the Aerial part weight [3] was 1.9 g and the Underground part weight [3] was 2.9 g. The Number of roots [3] was 9.5 roots, the oospore formation [4] was “no effect” and the Underground part weight [5] was 3.7 g. For the same compound, the Aerial part weight [5] was 5.1 g and the Number of roots [5] was 12.3 roots.
